“Also recorded” adds a separate entry of the source.
Target: protein kinase
Experiment: HTS ATP-utilizing enzyme assay, off-chip mobility-shift format (Caliper HTS 250)
Type: biochemical, human
Conditions: kinase(s) for which the compound exhibits protein kinase inhibitory activity; test compound 10 μM; active = greater than three-sigma from the mean activity of inactive compounds
Summary of the method: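 Single-point screen at 10 μM compound in HEPES pH 7.5 buffer with Triton X-100 and BSA, 2.5 h at 20–22 °C. Substrate-to-phosphopeptide ratio measured by off-chip microfluidic mobility shift; EDTA wells as 100% and DMSO wells as 0% control, hits called at three-sigma limits.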

Structure (SMILES) | Kinase
O=C(CSc1nnc(-c2ccncc2)[nH]1)c1c[nH]c2ccccc12 [1-(1H-indol-3-yl)-2-(5-(pyridin-4-yl)-4H-1,2,4-triazol-3-ylthio)ethanone] | CHEK2 and AURORA-A and PKA
O=C(CSc1nnc(-c2ccco2)[nH]1)c1ccc(O)c(O)c1 [1-(3,4-dihydroxyphenyl)-2-(5-(furan-2-yl)-4H-1,2,4-triazol-3-ylthio)ethanone] | FYN and PDGFRR-α and FLT-3
Nc1nncn1C(=O)Cc1ccc(Cl)cc1 [1-(3-amino-4H-1,2,4-triazol-4-yl)-2-(4-chlorophenyl)ethanone] | GSK-3-α; also recorded: GSK-3-β
COc1ccc(-c2nnc(SCC(C)=O)n2-c2ccccc2)cc1 [1-(5-(4-methoxyphenyl)-4-phenyl-4H-1,2,4-triazol-3-ylthio)propan-2-one] | INSR
O=C(CSc1nnc(-c2cccnc2)[nH]1)c1ccccc1 [1-phenyl-2-(5-(pyridin-3-yl)-4H-1,2,4-triazol-3-ylthio)ethanone] | AURORA-A
Cc1cccc(-c2nnc(SCC(=O)c3ccccc3)[nH]2)c1 [1-phenyl-2-(5-m-tolyl-4H-1,2,4-triazol-3-ylthio)ethanone] | FLT-3; also recorded: AURORA-A
Cc1ccc(-c2nnc(SCC(=O)O)n2-c2ccc(C)cc2)cc1 [2-(4,5-dip-tolyl-4H-1,2,4-triazol-3-ylthio)acetic acid] | DAPK1
Cc1ccc(-c2nnc(SC(C)C(=O)O)n2-c2ccc(C)cc2)cc1 (stereo not drawn) [2-(4,5-dip-tolyl-4H-1,2,4-triazol-3-ylthio)propanoic acid] | DAPK1

Same assay, conditions: test compound 10 μM; active = activity greater than three-sigma from the mean of the predominately inactive population for that enzyme

Structure (SMILES) | protein kinase against which the compound exhibits inhibitory activity (Table 3)
CCn1c(COc2ccc(Cl)cc2)nnc1SCCN1CCCCC1 | INSR and PDGFRR-α and CHEK1
Cn1c(CCc2nc3ccccc3[nH]2)nnc1SCCN1CCCCC1 | AURORA-A
COCCNC(=O)CSc1nnc(-c2ccccc2O)n1-c1ccccc1OC | KIT
N#Cc1ccccc1CSc1nnc(-c2ccc(OC(F)(F)F)cc2)[nH]1 | AURORA-A
CCn1c(CNc2ccccc2Cl)nnc1SCCN1CCCCC1 | MAPKAPK-2
COCCn1c(SCCN2CCOCC2)nnc1-c1cc2ccccc2cc1O | CHEK2
COc1ccccc1-n1c(SCCN2CCCCC2)nnc1-c1cccnc1 | AURORA-A
c1cncc(-c2nnc(SCCN3CCCCC3)[nH]2)c1 | GSK3-α
c1ccc(CSc2nnc(CCC3CCCC3)n2Cc2cccnc2)cc1 | GSK3-α
N#Cc1cccc(CSc2nnc(-c3cccs3)[nH]2)c1 | AURORA-A; also recorded: GSK3-β; also recorded: GSK3-α
FC(F)(F)c1cccc(-c2nnc(SCC3CCCO3)[nH]2)c1 (stereo not drawn) | AURORA-A
Clc1ccc(Cn2c(CCC3CCCC3)nnc2SCc2ccccc2)cc1Cl | GSK3-β; also recorded: AURORA-A; also recorded: c-TAK1
Cc1ccc(CCn2c(CCC3CCCC3)nnc2SCc2ccccc2)cc1 | AURORA-A; also recorded: c-TAK1
Cc1nn(-c2ccccc2)c2sc(-c3nnc(SCCN4CCCCC4)n3C)cc12 | GSK3-α; also recorded: CHEK2
COc1ccc(-n2c(COc3ccc4ccccc4c3)nnc2SCCN2CCOCC2)cc1 | CDK2-cyclinE
Cc1cc(OCc2nnc(SCCN3CCOCC3)n2Cc2ccccc2)ccc1Cl | AURORA-A
Cc1nn(-c2ccccc2)c2sc(-c3nnc(SCCN4CCOCC4)n3C)cc12 | GSK3-α; also recorded: GSK3-β; also recorded: DAPK1
COc1ccc(-n2c(SCCN3CCOCC3)nnc2-c2ccc(O)cc2)cc1 | GSK3-α; also recorded: GSK3-β
CCn1c(SCc2ccc(-c3csnn3)cc2)nnc1-c1cc(-c2ccccc2)nc2ccccc12 | c-TAK1
Oc1ccc(-c2nnc(SCCN3CCCCC3)n2Cc2ccco2)cc1 | GSK3-α
FC(F)Oc1ccccc1CSc1nnc(-c2cc(-c3ccccc3)nc3ccccc23)n1Cc1ccco1 | c-TAK1
CCOc1ccc2nc(-c3ccc(OC)cc3)cc(-c3nnc(SCc4ccc(F)cc4F)n3C)c2c1 | CHEK2
O=C(O)c1ccc(CSc2nnc(-c3ccc(OC(F)(F)F)cc3)[nH]2)cc1 | FLT-3; also recorded: AURORA-A; also recorded: DYRK2
CCc1nnc(SCc2ccccc2)n1Cc1ccc(Cl)c(Cl)c1 | GSK3-α; also recorded: GSK3-β; also recorded: AURORA-A
CCOc1ccc(NCc2nnc(SCCN3CCOCC3)n2-c2ccc(OC)cc2)cc1 | FYN
CCOc1ccc(NCc2nnc(SCCN3CCCCC3)n2-c2ccccc2)cc1 | PDGFRR-α and FYN

Structure (SMILES) | protein kinase against which the compound exhibits inhibitory activity (Table 3)
CCOc1ccc(NCc2nnc(SCCN3CCCCC3)n2-c2ccc(C)cc2)cc1 | FYN and PDGFRR-α
CCOc1ccc(NCc2nnc(SCCN3CCOCC3)n2-c2ccc(C)cc2)cc1 | FYN
CCOc1ccc(NCc2nnc(SCCN3CCOCC3)n2-c2ccccc2)cc1 | FYN
Cn1c(CNc2ccc(F)cc2)nnc1SCCN1CCOCC1 | PDGFRR-α
Fc1ccc(NCc2nnc(SCCN3CCOCC3)n2-c2ccccc2)cc1 | CDK2-cyclinA
COc1ccc(NCc2nnc(SCCN3CCCCC3)n2-c2ccccc2OC)cc1 | FYN and PDGFRR-α and FLT-3
COc1ccc(NCc2nnc(SCCN3CCCCC3)n2-c2ccc(OC)cc2)cc1 | FYN
COc1ccc(NCc2nnc(SCCN3CCCCC3)n2C)cc1 | FYN and PDGFRR-α
CCOc1ccc2nc(-c3ccc(OC)cc3)cc(-c3nnc(SCc4ccc(F)cc4C(F)(F)F)n3C)c2c1 | AURORA-A
COc1ccccc1-n1c(SC(C)C(=O)Nc2cccc(NC(=O)c3ccco3)c2)nnc1-c1cccc(Cl)c1 (stereo not drawn) | ROCK2
CCOc1ccc(NCc2nnc(SCCN3CCOCC3)n2-c2cccc(Cl)c2)cc1 | FYN and FLT-3 and PDGFRR-α
COc1ccc(NCc2nnc(SCCN3CCCCC3)n2-c2cccc(Cl)c2)cc1 | FYN and PDGFRR-α and FLT-3
COc1ccc(NCc2nnc(SCCCC3CCCCC3)n2C)cc1 | PDGFRR-α and FYN and FLT-3
COc1ccccc1-n1c(SC(C)C(=O)NCc2ccco2)nnc1-c1ccccc1 (stereo not drawn) | AKT1
CCOC(=O)c1ccc(CSc2nnc(-c3ccc(OC(F)(F)F)cc3)[nH]2)o1 | FLT-3; also recorded: GSK3-β
CCOC(=O)c1ccc(CSc2nnc(Cc3ccc(OC)cc3)[nH]2)o1 | FLT-3
CCOC(=O)c1ccc(CSc2nnc(-c3ccc([N+](=O)[O-])cc3)[nH]2)o1 | AURORA-A
OC(CSc1nnc(-c2cccnc2)[nH]1)C(F)(F)F (stereo not drawn) [1,1,1-trifluoro-3-(5-(pyridin-3-yl)-4H-1,2,4-triazol-3-ylthio)propan-2-ol] | AURORA-A
OC(CSc1nnc(-c2cccs2)[nH]1)C(F)(F)F (stereo not drawn) [1,1,1-trifluoro-3-(5-(thiophen-2-yl)-4H-1,2,4-triazol-3-ylthio)propan-2-ol] | AURORA-A; also recorded: DYRK2
COc1ccccc1-c1nnc(SCCSc2nnc(-c3ccccc3OC)n2-c2ccc(C)cc2)n1-c1ccc(C)cc1 [1,2-bis(5-(2-methoxyphenyl)-4-p-tolyl-4H-1,2,4-triazol-3-ylthio)ethane] | CDK1
CCn1c(SCCSc2nnc(C3CCCCC3)n2CC)nnc1C1CCCCC1 [1,2-bis(5-cyclohexyl-4-ethyl-4H-1,2,4-triazol-3-ylthio)ethane] | CHEK2
CCn1c(SCCN2CCCCC2)nnc1-c1ccc([N+](=O)[O-])cc1 [1-(2-(4-ethyl-5-(4-nitrophenyl)-4H-1,2,4-triazol-3-ylthio)ethyl)piperidine] | PDGFRR-α
COc1ccc(-c2nnc(SCCN3CCCCC3)[nH]2)cc1 [1-(2-(5-(4-methoxyphenyl)-4H-1,2,4-triazol-3-ylthio)ethyl)piperidine] | GSK3-α; also recorded: DYRK2; also recorded: GSK3-β
O=C1c2ccccc2C(=O)N1CCSc1nnc(-c2ccc([N+](=O)[O-])cc2)[nH]1 [2-(2-(5-(4-nitrophenyl)-4H-1,2,4-triazol-3-ylthio)ethyl)isoindoline-1,3-dione] | GSK3-α
O=C1c2ccccc2C(=O)N1CCSc1nnc(-c2cccs2)[nH]1 [2-(2-(5-(thiophen-2-yl)-4H-1,2,4-triazol-3-ylthio)ethyl)isoindoline-1,3-dione] | AURORA-A; also recorded: GSK3-α; also recorded: DYRK2
O=C1c2ccccc2C(=O)N1CCSc1nnc(-c2ccccc2)[nH]1 [2-(2-(5-phenyl-4H-1,2,4-triazol-3-ylthio)ethyl)isoindoline-1,3-dione] | AURORA-A; also recorded: GSK3-β; also recorded: GSK3-α

From US20050288347A1, “Certain triazole-based compounds, compositions, and uses thereof” (priority 2004, published 2005)
